Reference: patent US20200046802A1, “THERAPEUTIC METHOD USING TOLEROGENIC PEPTIDES” (APITOPE INTERNATIONAL NV, priority 2017, published 2020)
Ends that are not written are not given here.

How the values were obtained:
[1] = system: subjects with Graves' disease; experiment: Open label upward titration study of ATX-GD-59, safety; type: in vivo, human; settings: first 5 patients
Method: (§1) Safety and proof of principle study of ATX-GD-59 in male and female subjects with Graves' disease not currently treated with anti-thyroid therapy: An Open label study, with an upward titration over five dose levels administered by Intradermal injection.
(§2) There was an upward titration over five dose levels (injection(s) of 25, 50, 100, 400 and 800 μg) of ATX-GD-59 followed by injection(s) of 800 μg injected on five further occasions. All doses were based on the total peptide.
(§3) All doses were administered by intradermal injection at intervals of 14+/−3 days.
Subjects will be observed in the clinic for at least two hours after administration of the study drug and vital signs will be recorded at 15 minute intervals for the first hour and 30 minute intervals for the second hour. […]
Safety endpoints, which will be evaluated on an ongoing basis up to Week 22, are: • Injection site reactions as reported by the subjects in the diary card. • Occurrence of treatment related adverse events (Adverse Events), Serious Adverse Events, and laboratory abnormalities compared to baseline. • Results from the physical examination, and vital signs (reported on an ongoing basis and compared to baseline/screening). • Premature termination and reasons for premature termination from treatment and/or the study.

[2] = system: subjects with Graves' disease; experiment: Open label upward titration study of ATX-GD-59, TSHR antibody and free T3 levels; type: in vivo, human
Method: as §1, §2, §3
Criteria for Evaluation of the Secondary Objectives: • TSHR antibody levels. • Ratio of stimulatory vs inhibitory TSHR antibodies. • Free T3, free T4 and TSH serum levels.

ATX-GD-59: comprises the RNB-5D-K1 and RNB-9B peptides of SEQ ID NOs: 5 and 6; lyophilised equimolar mixture of two peptides (chain 1 KKKKYVSIDVTLQQLESHKKK; chain 2 GLKMFPDLTKVYSTD; not fully specified)
safety data analysed by DMC [1]: No safety issues were identified
T3, % change from SD1 to W18 ([2]; Subject 3101): 13.60%
TRAb, % change from SD1 to W18 ([2]; Subject 3101): 3.58%
TSI, % change from SD1 to W18 ([2]; Subject 3101): −30.32%
T3, % change from SD1 to W18 ([2]; Subject 3301): 21.4%
TRAb, % change from SD1 to W18 ([2]; Subject 3301): 16.60%
TSI, % change from SD1 to W18 ([2]; Subject 3301): −4.48%
T3, % change from SD1 to W18 ([2]; Subject 3402): −17.72%
TRAb, % change from SD1 to W18 ([2]; Subject 3402): −61.13%
TSI, % change from SD1 to W18 ([2]; Subject 3402): −57.89%
T3, % change from SD1 to W18 ([2]; Subject 3501): −22.39%
TRAb, % change from SD1 to W18 ([2]; Subject 3501): −30.33%
TSI, % change from SD1 to W18 ([2]; Subject 3501): −32.45%
T3, % change from SD1 to W18 ([2]; Subject 3503): −45.33%
TRAb, % change from SD1 to W18 ([2]; Subject 3503): −64.51%
TSI, % change from SD1 to W18 ([2]; Subject 3503): −61.71%
stimulating TRAB levels (TSI) ([2]; first 5 subjects): All subjects had decrease
subjects with decreases in T3 and TRAB ([2]; first 5 subjects): Three of 5
